Our source for the Ki and IC50 values is ChEMBL document CHEMBL1287744, “Potent and selective 5-LO inhibitor bearing benzothiophene pharmacophore: discovery of MK-5286” (Bioorg Med Chem Lett, 2010).

What is called Ki is a dissociation constant, usually derived from enzyme kinetics or from competition with a known ligand. Usually IC50 stands for the concentration needed to halve the response being measured.

Chain of Voltage-gated inwardly rectifying potassium channel KCNH2 (Q12809 whole entry): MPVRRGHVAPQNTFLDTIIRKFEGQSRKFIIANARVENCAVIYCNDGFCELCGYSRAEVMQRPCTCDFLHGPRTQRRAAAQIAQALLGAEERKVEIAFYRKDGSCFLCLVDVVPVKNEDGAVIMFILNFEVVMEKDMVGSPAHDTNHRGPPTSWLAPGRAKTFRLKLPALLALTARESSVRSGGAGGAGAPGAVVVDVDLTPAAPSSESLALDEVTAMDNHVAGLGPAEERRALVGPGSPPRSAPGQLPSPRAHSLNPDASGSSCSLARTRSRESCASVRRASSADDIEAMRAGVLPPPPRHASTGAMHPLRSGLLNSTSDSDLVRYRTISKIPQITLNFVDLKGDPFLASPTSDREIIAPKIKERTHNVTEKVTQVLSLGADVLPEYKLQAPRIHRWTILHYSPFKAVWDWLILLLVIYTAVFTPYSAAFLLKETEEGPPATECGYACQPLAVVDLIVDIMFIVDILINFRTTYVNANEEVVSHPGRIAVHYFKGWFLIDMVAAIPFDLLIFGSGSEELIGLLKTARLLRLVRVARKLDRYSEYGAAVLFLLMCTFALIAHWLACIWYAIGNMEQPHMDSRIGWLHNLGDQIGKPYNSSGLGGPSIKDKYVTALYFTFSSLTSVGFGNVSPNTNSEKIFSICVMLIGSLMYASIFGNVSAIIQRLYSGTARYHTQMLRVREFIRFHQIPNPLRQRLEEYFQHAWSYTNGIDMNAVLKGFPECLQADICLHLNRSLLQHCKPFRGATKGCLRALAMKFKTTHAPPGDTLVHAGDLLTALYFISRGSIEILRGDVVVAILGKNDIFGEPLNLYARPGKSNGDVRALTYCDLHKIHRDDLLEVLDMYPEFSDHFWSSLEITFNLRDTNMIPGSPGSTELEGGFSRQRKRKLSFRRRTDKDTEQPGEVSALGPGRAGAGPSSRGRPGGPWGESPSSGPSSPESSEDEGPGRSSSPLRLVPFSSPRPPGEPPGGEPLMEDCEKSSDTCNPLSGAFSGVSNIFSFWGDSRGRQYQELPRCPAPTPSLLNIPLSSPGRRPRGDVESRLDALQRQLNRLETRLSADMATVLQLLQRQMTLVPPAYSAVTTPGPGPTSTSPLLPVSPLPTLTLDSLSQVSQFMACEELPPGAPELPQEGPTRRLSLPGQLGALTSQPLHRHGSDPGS

One test concerns the target Voltage-gated inwardly rectifying potassium channel KCNH2 (Homo sapiens, UniProt Q12809). The test is described as follows: Displacement of labeled MK-499 from human ERG. Conditions: read-out: Ki.
Take `CCC(O)(c1cn(Cc2ccc3c(-c4ccccc4)c(C(C)=O)sc3c2)nn1)C(F)(F)F` (stereo not given): the Ki turned out to be 4400 nM.

With `CC[C@](O)(c1cn(Cc2ccc3c(-c4cccc(F)c4)c(C(N)=O)sc3c2)nn1)C(F)(F)F`, the inhibitory constant (Ki) turned out to be 14000 nM.

For `CCC(O)(c1cn(Cc2ccc3c(-c4ccccc4)c(CO)sc3c2)nn1)C(F)(F)F` (stereo not given), the inhibition constant (Ki) was 13000 nM.

Regarding `CCC(O)(c1cn(Cc2ccc3c(-c4ccccc4)c(C(C)(C)O)sc3c2)nn1)C(F)(F)F` (stereo not given), the Ki was 2600 nM.

A further test has as its target T1, Polyunsaturated fatty acid 5-lipoxygenase (Homo sapiens, UniProt P09917).
T1 sequence (P09917 whole entry): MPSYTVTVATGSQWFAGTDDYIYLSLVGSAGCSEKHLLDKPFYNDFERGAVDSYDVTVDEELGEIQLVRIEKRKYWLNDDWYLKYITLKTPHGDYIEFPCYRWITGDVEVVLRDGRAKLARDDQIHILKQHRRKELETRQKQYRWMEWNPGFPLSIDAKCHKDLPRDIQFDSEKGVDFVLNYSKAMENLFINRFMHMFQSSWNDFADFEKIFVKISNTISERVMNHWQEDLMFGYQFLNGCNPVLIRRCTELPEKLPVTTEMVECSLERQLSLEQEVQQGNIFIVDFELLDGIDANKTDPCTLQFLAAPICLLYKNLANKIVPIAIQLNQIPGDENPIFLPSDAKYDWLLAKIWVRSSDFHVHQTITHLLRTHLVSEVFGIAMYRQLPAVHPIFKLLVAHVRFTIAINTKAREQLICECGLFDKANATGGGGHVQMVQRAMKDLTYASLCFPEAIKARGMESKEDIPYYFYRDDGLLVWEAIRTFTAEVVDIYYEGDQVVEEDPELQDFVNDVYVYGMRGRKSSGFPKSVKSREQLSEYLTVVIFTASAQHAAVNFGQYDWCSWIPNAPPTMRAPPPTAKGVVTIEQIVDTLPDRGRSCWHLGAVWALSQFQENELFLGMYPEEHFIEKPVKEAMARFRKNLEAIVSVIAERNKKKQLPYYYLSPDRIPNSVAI
The test is described as follows: Inhibition of human recombinant 5-lipoxygenase assessed as arachidonic acid oxidation.
Details: not given
As to `CCC(O)(c1cn(Cc2ccc3c(-c4ccccc4)c(C(=O)NC)sc3c2)nn1)C(F)(F)F` (stereo not given), the IC50 stood at 223 nM.

As for `CCC(O)(c1cn(Cc2ccc3c(-c4ccccc4)c(C(=O)OC)sc3c2)nn1)C(F)(F)F` (stereo not given), the IC50 was determined as 7.9 nM.

For the compound `CCC(O)(c1cn(Cc2ccc3c(-c4ccccc4)c(C(N)=O)sc3c2)nn1)C(F)(F)F` (stereo not given), the 50% inhibitory concentration (IC50) amounted to 55 nM.

Take `CCC(O)(c1cn(Cc2ccc3c(-c4ccccc4)c(C(C)=O)sc3c2)nn1)C(F)(F)F` (stereo not given): the IC50 amounted to 11 nM.

Consider `CC[C@](O)(c1cn(Cc2ccc3c(-c4cccc(F)c4)c(C(N)=O)sc3c2)nn1)C(F)(F)F`, for which the IC50 amounted to 39 nM.

Turning to `CCC(O)(c1cn(Cc2ccc3c(-c4ccccc4)c(CO)sc3c2)nn1)C(F)(F)F` (stereo not given), the IC50 stood at 19 nM.

`CC[C@](O)(c1cn(Cc2ccc3c(-c4ccccc4)c(C(N)=O)sc3c2)nn1)C(F)(F)F`: the IC50 is 28 nM.

In the case of `CCC(O)(c1cn(Cc2ccc3c(-c4ccccc4)c(C(C)(C)O)sc3c2)nn1)C(F)(F)F` (stereo not given), the IC50 amounted to 198 nM.

The target in another test is T1, Polyunsaturated fatty acid 5-lipoxygenase. The test is described as follows: Inhibition of 5-lipoxygenase in human whole blood assessed as inhibition of LTB4 production. Type of test: tissue-based.
Details: not given
Turning to `CCC(O)(c1cn(Cc2ccc3c(-c4ccccc4)c(C(=O)NC)sc3c2)nn1)C(F)(F)F` (stereo not given), the IC50 is 263 nM.

For `CCC(O)(c1cn(Cc2ccc3c(-c4ccccc4)c(C(=O)OC)sc3c2)nn1)C(F)(F)F` (stereo not given), the IC50 worked out at 260 nM.

On to `CCC(O)(c1cn(Cc2ccc3c(-c4ccccc4)c(C(N)=O)sc3c2)nn1)C(F)(F)F` (stereo not given), for which the IC50 came out at 70 nM.

As for `CCC(O)(c1cn(Cc2ccc3c(-c4ccccc4)c(C(C)=O)sc3c2)nn1)C(F)(F)F` (stereo not given), the IC50 is 84 nM.

Turning to `CC[C@](O)(c1cn(Cc2ccc3c(-c4cccc(F)c4)c(C(N)=O)sc3c2)nn1)C(F)(F)F`, the IC50 worked out at 31 nM.

`CCC(O)(c1cn(Cc2ccc3c(-c4ccccc4)c(CO)sc3c2)nn1)C(F)(F)F` (stereo not given): the IC50 was determined as 64 nM.

Consider `CC[C@](O)(c1cn(Cc2ccc3c(-c4ccccc4)c(C(N)=O)sc3c2)nn1)C(F)(F)F`, for which the IC50 was 32 nM.

Consider `CCC(O)(c1cn(Cc2ccc3c(-c4ccccc4)c(C(C)(C)O)sc3c2)nn1)C(F)(F)F` (stereo not given), for which the IC50 was 392 nM.
